Key:
Format in all cases: in vivo
[1] = tested on: Italian ryegrass (Lolium multiflorum); assay: Test A preemergence, visual plant response rating; conditions: for Ryegrass, Italian plant response rating: 125 g ai/ha, preemergence, 0 to 100 scale, 0 no effect, 100 complete control; for Ryegrass, Italian plant response rating (0 to 100 scale): 500 g ai/ha Preemergence, approx. 10 days
Procedure, shortened: (§1)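 Formulated in a non-phytotoxic solvent mixture including surfactant, each test chemical was sprayed onto the soil surface after sowing, or onto seedlings 2 to 10 cm high. Roughly 10 days later, plants were compared with untreated controls and rated for injury from 0 (no effect) to 100 (complete control).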

[2] = tested on: barnyardgrass (Echinochloa crus-galli); assay: Test A preemergence, visual plant response rating; conditions: for Barnyardgrass plant response rating: 125 g ai/ha, preemergence, 0 to 100 scale, 0 no effect, 100 complete control; for Barnyardgrass plant response rating (0 to 100 scale): 500 g ai/ha Preemergence, approx. 10 days
Procedure, shortened: as §1

[3] = tested on: foxtail, giant (giant foxtail, Setaria faberii); assay: Test A preemergence, visual plant response rating; conditions: for Foxtail, Giant plant response rating: 125 g ai/ha, preemergence, 0 to 100 scale, 0 no effect, 100 complete control; for Foxtail, Giant plant response rating (0 to 100 scale): 500 g ai/ha Preemergence, approx. 10 days
Procedure, shortened: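 Greenhouse pot test in loam–sand soil mix: compound in a surfactant-containing non-phytotoxic solvent applied preemergence (directed soil spray) or postemergence (one- to two-leaf plants, 2–10 cm). Injury scored visually after ~10 days, 0–100.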

[4] = tested on: kochia (Kochia scoparia); assay: Test A preemergence, visual plant response rating; conditions: for Kochia plant response rating: 125 g ai/ha, preemergence, 0 to 100 scale, 0 no effect, 100 complete control; for Kochia plant response rating (0 to 100 scale): 500 g ai/ha Preemergence, approx. 10 days
Procedure, shortened: as §1

[5] = tested on: pigweed (Amaranthus retroflexus); assay: Test A preemergence, visual plant response rating; conditions: for Pigweed plant response rating: 125 g ai/ha, preemergence, 0 to 100 scale, 0 no effect, 100 complete control; for Pigweed plant response rating (0 to 100 scale): 500 g ai/ha Preemergence, approx. 10 days
Procedure, shortened: as §1

[6] = tested on: ragweed (common ragweed, Ambrosia elatior); assay: Test A preemergence, visual plant response rating; conditions: for Ragweed plant response rating: 125 g ai/ha, preemergence, 0 to 100 scale, 0 no effect, 100 complete control; for Ragweed plant response rating (0 to 100 scale): 500 g ai/ha Preemergence, approx. 10 days
Procedure, shortened: as §1

[7] = tested on: Italian ryegrass (Lolium multiflorum); assay: Test A postemergence, visual plant response rating; conditions: for Ryegrass, Italian plant response rating (0 to 100 scale): 500 g ai/ha, postemergence, 0 is no effect, 100 is complete control; for Ryegrass, Italian plant response rating: Postemergence, 125 g ai/ha, 0 to 100 scale (0 no effect, 100 complete control)
Procedure, shortened: as §1

[8] = tested on: barnyardgrass (Echinochloa crus-galli); assay: Test A postemergence, visual plant response rating; conditions: for Barnyardgrass plant response rating (0 to 100 scale): 500 g ai/ha, postemergence, 0 is no effect, 100 is complete control; for Barnyardgrass plant response rating: Postemergence, 125 g ai/ha, 0 to 100 scale (0 no effect, 100 complete control)
Procedure, shortened: as §1

[9] = tested on: blackgrass (Alopecurus myosuroides); assay: Test A postemergence, visual plant response rating; conditions: for Blackgrass plant response rating (0 to 100 scale): 500 g ai/ha, postemergence, 0 is no effect, 100 is complete control; for Blackgrass plant response rating: Postemergence, 125 g ai/ha, 0 to 100 scale (0 no effect, 100 complete control)
Procedure, shortened: as §1

[10] = tested on: corn (Zea mays); assay: Test A postemergence, visual plant response rating; conditions: for Corn plant response rating (0 to 100 scale): 500 g ai/ha, postemergence, 0 is no effect, 100 is complete control; for Corn plant response rating: Postemergence, 125 g ai/ha, 0 to 100 scale (0 no effect, 100 complete control)
Procedure, shortened: as §1

[11] = tested on: foxtail, giant (giant foxtail, Setaria faberii); assay: Test A postemergence, visual plant response rating; conditions: for Foxtail, Giant plant response rating (0 to 100 scale): 500 g ai/ha, postemergence, 0 is no effect, 100 is complete control; for Foxtail, Giant plant response rating: Postemergence, 125 g ai/ha, 0 to 100 scale (0 no effect, 100 complete control)
Procedure, shortened: as §1

[12] = tested on: galium (catchweed bedstraw, Galium aparine); assay: Test A postemergence, visual plant response rating; conditions: for Galium plant response rating (0 to 100 scale): 500 g ai/ha, postemergence, 0 is no effect, 100 is complete control; for Galium plant response rating: Postemergence, 125 g ai/ha, 0 to 100 scale (0 no effect, 100 complete control)
Procedure, shortened: as §1

[13] = tested on: kochia (Kochia scoparia); assay: Test A postemergence, visual plant response rating; conditions: for Kochia plant response rating (0 to 100 scale): 500 g ai/ha, postemergence, 0 is no effect, 100 is complete control; for Kochia plant response rating: Postemergence, 125 g ai/ha, 0 to 100 scale (0 no effect, 100 complete control)
Procedure, shortened: as §1

[14] = tested on: pigweed (Amaranthus retroflexus); assay: Test A postemergence, visual plant response rating; conditions: for Pigweed plant response rating (0 to 100 scale): 500 g ai/ha, postemergence, 0 is no effect, 100 is complete control; for Pigweed plant response rating: Postemergence, 125 g ai/ha, 0 to 100 scale (0 no effect, 100 complete control)
Procedure, shortened: as §1

[15] = tested on: ragweed (common ragweed, Ambrosia elatior); assay: Test A postemergence, visual plant response rating; conditions: for Ragweed plant response rating (0 to 100 scale): 500 g ai/ha, postemergence, 0 is no effect, 100 is complete control; for Ragweed plant response rating: Postemergence, 125 g ai/ha, 0 to 100 scale (0 no effect, 100 complete control)
Procedure, shortened: as §1

[16] = tested on: wheat (Triticum aestivum); assay: Test A postemergence, visual plant response rating; conditions: for Wheat plant response rating (0 to 100 scale): 500 g ai/ha, postemergence, 0 is no effect, 100 is complete control; for Wheat plant response rating: Postemergence, 125 g ai/ha, 0 to 100 scale (0 no effect, 100 complete control)
Procedure, shortened: as §1

[17] = tested on: barnyardgrass (Echinochloa crus-galli); assay: Test B flooded paddy test, visual plant response rating; conditions: 250 g ai/ha, Flood, applied to paddy water, 2-leaf stage, evaluated after 13 to 15 days
Procedure, shortened: (§2)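 Plants were raised to the 2-leaf stage, then pots were flooded to 3 cm above the soil and test compound was applied directly into the paddy water. Water depth was held for the whole test; after 13 to 15 days in a greenhouse, responses were scored visually against controls.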

[18] = tested on: ducksalad (Heteranhera limosa); assay: as above; conditions: 250 g ai/ha, Flood, applied to paddy water, 2-leaf stage, evaluated after 13 to 15 days
Procedure, shortened: as §2

[19] = tested on: rice (Oryza sativa); assay: as above; conditions: 250 g ai/ha, Flood, applied to paddy water, 2-leaf stage, evaluated after 13 to 15 days
Procedure, shortened: as §2

[20] = tested on: sedge, umbrella (small-flower umbrella sedge, Cyperus difformis); assay: as above; conditions: 250 g ai/ha, Flood, applied to paddy water, 2-leaf stage, evaluated after 13 to 15 days
Procedure, shortened: as §2

Row | Compound | Ryegrass, Italian plant response rating [1] | Ryegrass, Italian plant response rating (0 to 100 scale) [1] | Barnyardgrass plant response rating [2] | Barnyardgrass plant response rating (0 to 100 scale) [2] | Foxtail, Giant plant response rating [3] | Foxtail, Giant plant response rating (0 to 100 scale) [3] | Kochia plant response rating [4] | Kochia plant response rating (0 to 100 scale) [4] | Pigweed plant response rating [5] | Pigweed plant response rating (0 to 100 scale) [5] | Ragweed plant response rating [6] | Ragweed plant response rating (0 to 100 scale) [6] | Ryegrass, Italian plant response rating (0 to 100 scale) [7] | Ryegrass, Italian plant response rating [7] | Barnyardgrass plant response rating (0 to 100 scale) [8] | Barnyardgrass plant response rating [8] | Blackgrass plant response rating (0 to 100 scale) [9] | Blackgrass plant response rating [9] | Corn plant response rating (0 to 100 scale) [10] | Corn plant response rating [10] | other results
1 | CO/N=C(\c1ccc(F)cc1C)c1c(O)c(C)nn(C)c1=O [Compound 72] | 0 | 40 | 0 | 0 | 0 | 10 | 0 | 0 | 0 | 20 | 0 | 20 | 40 | 0 | 0 | 0 | 0 | 20 | 20 | 0 | Foxtail, Giant plant response rating (0 to 100 scale) [11]: 10; Foxtail, Giant plant response rating [11]: 0; Galium plant response rating (0 to 100 scale) [12]: 70; Galium plant response rating [12]: 70; Kochia plant response rating (0 to 100 scale) [13]: 60; Kochia plant response rating [13]: 20; Pigweed plant response rating (0 to 100 scale) [14]: 80; Pigweed plant response rating [14]: 30; Ragweed plant response rating (0 to 100 scale) [15]: 70; Ragweed plant response rating [15]: 40; Wheat plant response rating (0 to 100 scale) [16]: 20; Wheat plant response rating [16]: 0; Plant response rating, Barnyardgrass (0 to 100 scale, 0 is no effect, 100 is complete control) [17]: 0; Plant response rating, Ducksalad (0 to 100 scale, 0 is no effect, 100 is complete control) [18]: 0; Plant response rating, Rice (0 to 100 scale, 0 is no effect, 100 is complete control) [19]: 0; Plant response rating, Sedge, Umbrella (0 to 100 scale, 0 is no effect, 100 is complete control) [20]: 0
2 | CON=C(c1cc(C(F)(F)F)ccc1Cl)c1c(O)c(C)nn(C)c1=O [Compound 73] | 20 | 50 | 20 | 80 | 20 | 80 | 0 | 20 | 70 | 100 | 30 | 90 | 90 | 40 | 60 | 20 | 90 | 30 | 20 | 0 | Foxtail, Giant plant response rating (0 to 100 scale) [11]: 60; Foxtail, Giant plant response rating [11]: 30; Galium plant response rating (0 to 100 scale) [12]: 70; Galium plant response rating [12]: 70; Kochia plant response rating (0 to 100 scale) [13]: 80; Kochia plant response rating [13]: 60; Pigweed plant response rating (0 to 100 scale) [14]: 90; Pigweed plant response rating [14]: 80; Ragweed plant response rating (0 to 100 scale) [15]: 80; Ragweed plant response rating [15]: 50; Wheat plant response rating (0 to 100 scale) [16]: 40; Wheat plant response rating [16]: 20; Plant response rating, Barnyardgrass (0 to 100 scale, 0 is no effect, 100 is complete control) [17]: 0; Plant response rating, Ducksalad (0 to 100 scale, 0 is no effect, 100 is complete control) [18]: 0; Plant response rating, Rice (0 to 100 scale, 0 is no effect, 100 is complete control) [19]: 0; Plant response rating, Sedge, Umbrella (0 to 100 scale, 0 is no effect, 100 is complete control) [20]: 0
3 | CO/N=C(\c1cccc(C#N)c1)c1c(O)c(C)nn(C)c1=O [Compound 74] | 0 | 0 | 0 | 0 | 0 | 0 | 0 | 0 | 0 | 0 | 0 | 0 | 20 | 10 | 0 | 0 | 20 | 0 | 0 | 0 | Foxtail, Giant plant response rating (0 to 100 scale) [11]: 0; Foxtail, Giant plant response rating [11]: 0; Galium plant response rating (0 to 100 scale) [12]: 50; Galium plant response rating [12]: 10; Kochia plant response rating (0 to 100 scale) [13]: 30; Kochia plant response rating [13]: 0; Pigweed plant response rating (0 to 100 scale) [14]: 30; Pigweed plant response rating [14]: 20; Ragweed plant response rating (0 to 100 scale) [15]: 20; Ragweed plant response rating [15]: 0; Wheat plant response rating (0 to 100 scale) [16]: 0; Wheat plant response rating [16]: 0; Plant response rating, Barnyardgrass (0 to 100 scale, 0 is no effect, 100 is complete control) [17]: 0; Plant response rating, Ducksalad (0 to 100 scale, 0 is no effect, 100 is complete control) [18]: 25; Plant response rating, Rice (0 to 100 scale, 0 is no effect, 100 is complete control) [19]: 15; Plant response rating, Sedge, Umbrella (0 to 100 scale, 0 is no effect, 100 is complete control) [20]: 10
